Inconclusive results are not listed.
Test system: MX-1 breast xenograft, nude mice, tumor weight T/C
Test: NCI In Vivo Anticancer Drug Screen. Data for tumor model Human Mammary Carcinoma MX-1 Xenograft (intrarenal inoculation) in NU/NU Swiss (nude) mice
Conditions: endpoint: mean tumor weight change, higher = larger tumour
In short: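 Activity is given as a ratio, with each measurement in the compound-treated arm divided by the matching measurement in vehicle-dosed controls. Tumour size or survival serves as the measured parameter.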

[1] = dose: 150.0 mg/kg/injection, schedule: Q04DX003 (sc), vehicle: saline with Tween-80
[2] = dose: 300.0 mg/kg/injection, schedule: Q04DX003 (sc), vehicle: saline with Tween-80
[3] = dose: 600.0 mg/kg/injection, schedule: Q04DX003 (sc), vehicle: saline with Tween-80
[4] = dose: 1200.0 mg/kg/injection, schedule: Q04DX003 (sc), vehicle: saline with Tween-80

## O=C(O)C1CSCN1 (configuration not stated)
dose: 50.0 mg/kg/injection, schedule: Q01DX010 (sc), vehicle: water
  T/C: 176 % of control

## CC(Cc1ccc(O)c(O)c1)C(C)Cc1ccc(O)c(O)c1 (configuration not stated)
dose: 150.0 mg/kg/injection, schedule: Q04DX003 (sc), vehicle: saline + alcohol
  T/C: 109 % of control
dose: 300.0 mg/kg/injection, schedule: Q04DX003 (sc), vehicle: saline + alcohol
  T/C: 92 % of control
dose: 1200.0 mg/kg/injection, schedule: Q04DX003 (sc), vehicle: saline + alcohol
  T/C: 92 % of control

## CC(=O)OC1COC(NC(=O)N(CCCl)N=O)C(OC(C)=O)C1OC(C)=O (configuration not stated)
dose: 4.5 mg/kg/injection, schedule: Q04DX003 (sc), vehicle: saline with Tween-80
  T/C: 105 % of control
dose: 9.0 mg/kg/injection, schedule: Q04DX003 (sc), vehicle: saline with Tween-80
  T/C: 77 % of control
dose: 18.0 mg/kg/injection, schedule: Q04DX003 (sc), vehicle: saline with Tween-80
  T/C: 110 % of control
dose: 36.0 mg/kg/injection, schedule: Q04DX003 (sc), vehicle: saline with Tween-80
  T/C: 82 % of control

## CCCCC(=O)OCC(=O)[C@]1(O)Cc2c(O)c3c(c(O)c2[C@@H](OC2CC(NC(=O)C(F)(F)F)C(O)C(C)O2)C1)C(=O)c1c(OC)cccc1C3=O (some centres not stated)
dose: 64.0 mg/kg/injection, schedule: Q01DX010 (sc), vehicle: distilled water + Tween-80
  T/C: 91 % of control
dose: 128.0 mg/kg/injection, schedule: Q01DX010 (sc), vehicle: distilled water + Tween-80
  T/C: 56 % of control
dose: 256.0 mg/kg/injection, schedule: Q01DX010 (sc), vehicle: distilled water + Tween-80
  T/C: 34 % of control

## O=c1[nH]cnc2n[nH]nc12
dose: 100.0 mg/kg/injection, schedule: Q04DX003 (sc), vehicle: Klucel (hydroxypropylcellulose) (HPC)
  T/C: 54 % of control
dose: 200.0 mg/kg/injection, schedule: Q04DX003 (sc), vehicle: Klucel (hydroxypropylcellulose) (HPC)
  T/C: 27 % of control
dose: 400.0 mg/kg/injection, schedule: Q04DX003 (sc), vehicle: Klucel (hydroxypropylcellulose) (HPC)
  T/C: 48 % of control
dose: 800.0 mg/kg/injection, schedule: Q04DX003 (sc), vehicle: Klucel (hydroxypropylcellulose) (HPC)
  T/C: 31 % of control

## COc1ccc(C[C@H](N)C(=O)NC2C(CO)OC(n3cnc4c(N(C)C)ncnc43)C2O)cc1 (some centres not stated)
dose: 100.0 mg/kg/injection, schedule: Q04DX003 (sc), vehicle: saline
  T/C: 102 % of control
dose: 200.0 mg/kg/injection, schedule: Q04DX003 (sc), vehicle: saline
  T/C: 99 % of control

## N=C(N)c1ccc(/C=C/c2ccc(C(=N)N)cc2O)cc1
dose: 37.5 mg/kg/injection, schedule: Q04DX003 (sc), vehicle: water
  T/C: 87 % of control
dose: 75.0 mg/kg/injection, schedule: Q04DX003 (sc), vehicle: water
  T/C: 83 % of control
dose: 150.0 mg/kg/injection, schedule: Q04DX003 (sc), vehicle: water
  T/C: 89 % of control
dose: 300.0 mg/kg/injection, schedule: Q04DX003 (sc), vehicle: water
  T/C: 77 % of control

## CN=C(N)N/N=C(\C)c1ccc2c(c1)Cc1ccccc1-2
[1]
  T/C: 105 % of control
[2]
  T/C: 115 % of control
[3]
  T/C: 105 % of control
[4]
  T/C: 191 % of control

## NC(=O)c1ncn(C2OC(CO)C(O)C2O)n1 (configuration not stated)
dose: 225.0 mg/kg/injection, schedule: Q04DX003 (sc), vehicle: saline
  T/C: 108 % of control
dose: 450.0 mg/kg/injection, schedule: Q04DX003 (sc), vehicle: saline
  T/C: 61 % of control
dose: 900.0 mg/kg/injection, schedule: Q04DX003 (sc), vehicle: saline
  T/C: 45 % of control

## COc1ccc(OC)c(/C=C/c2ccnc3ccccc23)c1
[1]
  T/C: 96 % of control
[2]
  T/C: 91 % of control
[3]
  T/C: 96 % of control
[4]
  T/C: 96 % of control

— PubChem BioAssay AID296 (DTP/NCI, 2004)
